Data as given in patent US20050282743A1, “Molecular interactions in cells” (Arbor Vita Corporation, priority 2001, published 2005).
Ends that are not written are not given here. Peptide text beside a SMILES is read from it. * marks the point of attachment. Biotin = O=C1N[C@H]2[C@H](CS[C@H]2CCCCC(=O)*)N1

Tests used:
Assay in all cases: G' assay (10 uM PL peptide), results of TABLE 7 and TABLE 12
Format in all cases: binding
[1] = target: T1, PDZ protein (GST-PDZ fusion) (Homo sapiens, UniProt O75970)
T1 construct: made in house; host or cells: E. coli (DH5alpha, BL21 or JM109)
Summary of the method: (§1)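 Same steps as the G-zero format, apart from a peptide concentration of 10 uM in place of 20 uM in step 2. Amino-terminally biotinylated PL peptides bind GST-PDZ fusions, and retained peptide is quantified by 450 nm absorbance.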

[2] = target: T2, PDZ protein (GST-PDZ fusion) (Homo sapiens, UniProt Q5TCQ9)
T2 construct: made in house; host or cells: E. coli (DH5alpha, BL21 or JM109)
T2 sequence (Q5TCQ9 1-1481): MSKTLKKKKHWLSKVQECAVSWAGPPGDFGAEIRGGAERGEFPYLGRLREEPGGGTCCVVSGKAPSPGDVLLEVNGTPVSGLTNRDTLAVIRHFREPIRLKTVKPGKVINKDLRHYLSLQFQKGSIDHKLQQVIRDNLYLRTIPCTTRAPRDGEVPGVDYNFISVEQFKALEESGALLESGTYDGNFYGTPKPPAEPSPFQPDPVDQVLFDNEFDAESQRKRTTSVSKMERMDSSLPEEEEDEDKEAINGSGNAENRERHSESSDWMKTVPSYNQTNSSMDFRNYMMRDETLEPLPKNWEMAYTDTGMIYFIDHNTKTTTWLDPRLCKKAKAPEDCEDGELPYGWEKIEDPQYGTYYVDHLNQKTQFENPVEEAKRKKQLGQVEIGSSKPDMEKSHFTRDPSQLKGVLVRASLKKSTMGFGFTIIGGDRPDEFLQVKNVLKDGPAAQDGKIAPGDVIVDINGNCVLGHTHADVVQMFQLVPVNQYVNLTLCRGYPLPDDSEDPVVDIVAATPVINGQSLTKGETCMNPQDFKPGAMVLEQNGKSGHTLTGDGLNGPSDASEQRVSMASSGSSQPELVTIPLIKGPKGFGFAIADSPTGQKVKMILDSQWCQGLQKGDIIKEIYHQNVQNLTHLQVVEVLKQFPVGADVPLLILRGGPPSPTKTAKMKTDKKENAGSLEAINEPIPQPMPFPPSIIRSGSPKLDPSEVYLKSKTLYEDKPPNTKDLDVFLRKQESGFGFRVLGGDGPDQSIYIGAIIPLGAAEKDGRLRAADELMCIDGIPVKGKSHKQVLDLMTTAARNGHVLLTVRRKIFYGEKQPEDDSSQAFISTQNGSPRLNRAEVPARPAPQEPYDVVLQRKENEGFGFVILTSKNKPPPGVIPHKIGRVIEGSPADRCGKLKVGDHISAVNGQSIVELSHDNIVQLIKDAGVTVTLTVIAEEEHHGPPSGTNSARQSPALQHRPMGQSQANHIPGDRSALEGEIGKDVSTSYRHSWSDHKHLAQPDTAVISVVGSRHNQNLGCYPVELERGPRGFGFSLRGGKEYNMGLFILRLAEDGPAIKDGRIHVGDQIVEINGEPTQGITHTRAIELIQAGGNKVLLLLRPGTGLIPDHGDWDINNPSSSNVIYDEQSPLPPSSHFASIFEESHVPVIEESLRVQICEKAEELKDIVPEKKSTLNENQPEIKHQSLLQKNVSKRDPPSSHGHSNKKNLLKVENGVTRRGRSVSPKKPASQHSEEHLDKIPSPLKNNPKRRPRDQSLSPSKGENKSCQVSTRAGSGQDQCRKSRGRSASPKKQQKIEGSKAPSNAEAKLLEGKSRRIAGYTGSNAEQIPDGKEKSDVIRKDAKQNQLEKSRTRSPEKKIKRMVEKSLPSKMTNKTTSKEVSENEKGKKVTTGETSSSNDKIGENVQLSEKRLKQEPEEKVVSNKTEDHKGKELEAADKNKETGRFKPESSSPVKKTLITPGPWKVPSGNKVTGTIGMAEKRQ
Summary of the method: as §1

[3] = target: T3, PDZ protein (GST-PDZ fusion) (Homo sapiens, UniProt Q6P0Q8)
T3 construct: made in house; host or cells: E. coli (DH5alpha, BL21 or JM109)
T3 sequence (Q6P0Q8 whole entry, the tested form may be a part): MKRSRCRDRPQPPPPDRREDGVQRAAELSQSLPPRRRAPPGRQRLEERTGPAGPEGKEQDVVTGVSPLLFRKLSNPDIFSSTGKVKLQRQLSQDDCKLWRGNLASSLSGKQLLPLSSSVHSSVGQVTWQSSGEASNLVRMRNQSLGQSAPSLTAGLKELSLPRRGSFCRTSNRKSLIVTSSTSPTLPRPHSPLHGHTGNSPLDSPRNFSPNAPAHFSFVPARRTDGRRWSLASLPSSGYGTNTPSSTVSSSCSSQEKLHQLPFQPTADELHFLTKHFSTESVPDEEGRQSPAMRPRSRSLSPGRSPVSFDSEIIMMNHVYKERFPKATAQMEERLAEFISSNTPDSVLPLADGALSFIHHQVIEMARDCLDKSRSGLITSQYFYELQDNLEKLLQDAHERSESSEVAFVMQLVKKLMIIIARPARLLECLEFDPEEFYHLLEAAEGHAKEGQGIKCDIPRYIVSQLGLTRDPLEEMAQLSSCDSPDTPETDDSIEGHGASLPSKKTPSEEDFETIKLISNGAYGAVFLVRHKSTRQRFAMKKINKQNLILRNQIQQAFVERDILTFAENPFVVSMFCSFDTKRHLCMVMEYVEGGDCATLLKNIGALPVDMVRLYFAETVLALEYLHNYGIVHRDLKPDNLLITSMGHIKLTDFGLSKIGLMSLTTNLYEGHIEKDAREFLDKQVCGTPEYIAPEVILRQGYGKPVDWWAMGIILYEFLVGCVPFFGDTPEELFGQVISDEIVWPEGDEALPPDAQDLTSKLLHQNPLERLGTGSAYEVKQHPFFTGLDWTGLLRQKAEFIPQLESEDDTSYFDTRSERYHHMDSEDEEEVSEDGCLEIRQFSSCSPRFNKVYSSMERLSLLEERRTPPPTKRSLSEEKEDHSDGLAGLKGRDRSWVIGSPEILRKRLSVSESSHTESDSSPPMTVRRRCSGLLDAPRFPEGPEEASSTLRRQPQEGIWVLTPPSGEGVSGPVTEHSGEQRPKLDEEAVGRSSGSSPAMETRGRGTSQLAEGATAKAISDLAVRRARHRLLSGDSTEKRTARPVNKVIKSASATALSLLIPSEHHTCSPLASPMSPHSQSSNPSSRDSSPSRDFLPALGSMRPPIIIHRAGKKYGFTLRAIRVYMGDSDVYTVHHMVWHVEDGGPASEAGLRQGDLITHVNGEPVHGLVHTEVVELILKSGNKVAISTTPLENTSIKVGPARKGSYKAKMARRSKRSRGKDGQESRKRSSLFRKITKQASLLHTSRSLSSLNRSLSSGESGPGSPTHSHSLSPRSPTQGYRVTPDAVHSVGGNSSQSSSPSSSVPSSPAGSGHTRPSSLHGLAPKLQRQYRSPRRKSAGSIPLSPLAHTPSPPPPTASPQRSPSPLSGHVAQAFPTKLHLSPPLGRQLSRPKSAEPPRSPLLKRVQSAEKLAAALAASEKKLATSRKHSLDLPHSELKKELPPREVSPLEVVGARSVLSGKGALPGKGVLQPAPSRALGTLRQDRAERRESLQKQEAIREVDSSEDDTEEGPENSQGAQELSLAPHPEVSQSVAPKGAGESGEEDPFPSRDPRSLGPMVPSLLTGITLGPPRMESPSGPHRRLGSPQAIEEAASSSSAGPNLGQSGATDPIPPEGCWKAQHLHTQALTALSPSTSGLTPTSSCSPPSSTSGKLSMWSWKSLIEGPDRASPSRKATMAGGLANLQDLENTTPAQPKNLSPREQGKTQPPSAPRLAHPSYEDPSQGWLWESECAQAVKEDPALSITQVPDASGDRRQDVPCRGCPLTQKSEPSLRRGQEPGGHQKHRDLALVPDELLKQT
Summary of the method: as §1

[4] = target: T4, PDZ protein (GST-PDZ fusion) (Homo sapiens, UniProt Q8NI35); details: PDZ INADL
T4 construct: made in house; host or cells: E. coli (DH5alpha, BL21 or JM109)
Summary of the method: as §1

[5] = target: T5, PDZ protein (GST-PDZ fusion) (Homo sapiens, UniProt Q12923)
T5 construct: made in house; host or cells: E. coli (DH5alpha, BL21 or JM109)
T5 sequence (Q12923 whole entry, the tested form may be a part): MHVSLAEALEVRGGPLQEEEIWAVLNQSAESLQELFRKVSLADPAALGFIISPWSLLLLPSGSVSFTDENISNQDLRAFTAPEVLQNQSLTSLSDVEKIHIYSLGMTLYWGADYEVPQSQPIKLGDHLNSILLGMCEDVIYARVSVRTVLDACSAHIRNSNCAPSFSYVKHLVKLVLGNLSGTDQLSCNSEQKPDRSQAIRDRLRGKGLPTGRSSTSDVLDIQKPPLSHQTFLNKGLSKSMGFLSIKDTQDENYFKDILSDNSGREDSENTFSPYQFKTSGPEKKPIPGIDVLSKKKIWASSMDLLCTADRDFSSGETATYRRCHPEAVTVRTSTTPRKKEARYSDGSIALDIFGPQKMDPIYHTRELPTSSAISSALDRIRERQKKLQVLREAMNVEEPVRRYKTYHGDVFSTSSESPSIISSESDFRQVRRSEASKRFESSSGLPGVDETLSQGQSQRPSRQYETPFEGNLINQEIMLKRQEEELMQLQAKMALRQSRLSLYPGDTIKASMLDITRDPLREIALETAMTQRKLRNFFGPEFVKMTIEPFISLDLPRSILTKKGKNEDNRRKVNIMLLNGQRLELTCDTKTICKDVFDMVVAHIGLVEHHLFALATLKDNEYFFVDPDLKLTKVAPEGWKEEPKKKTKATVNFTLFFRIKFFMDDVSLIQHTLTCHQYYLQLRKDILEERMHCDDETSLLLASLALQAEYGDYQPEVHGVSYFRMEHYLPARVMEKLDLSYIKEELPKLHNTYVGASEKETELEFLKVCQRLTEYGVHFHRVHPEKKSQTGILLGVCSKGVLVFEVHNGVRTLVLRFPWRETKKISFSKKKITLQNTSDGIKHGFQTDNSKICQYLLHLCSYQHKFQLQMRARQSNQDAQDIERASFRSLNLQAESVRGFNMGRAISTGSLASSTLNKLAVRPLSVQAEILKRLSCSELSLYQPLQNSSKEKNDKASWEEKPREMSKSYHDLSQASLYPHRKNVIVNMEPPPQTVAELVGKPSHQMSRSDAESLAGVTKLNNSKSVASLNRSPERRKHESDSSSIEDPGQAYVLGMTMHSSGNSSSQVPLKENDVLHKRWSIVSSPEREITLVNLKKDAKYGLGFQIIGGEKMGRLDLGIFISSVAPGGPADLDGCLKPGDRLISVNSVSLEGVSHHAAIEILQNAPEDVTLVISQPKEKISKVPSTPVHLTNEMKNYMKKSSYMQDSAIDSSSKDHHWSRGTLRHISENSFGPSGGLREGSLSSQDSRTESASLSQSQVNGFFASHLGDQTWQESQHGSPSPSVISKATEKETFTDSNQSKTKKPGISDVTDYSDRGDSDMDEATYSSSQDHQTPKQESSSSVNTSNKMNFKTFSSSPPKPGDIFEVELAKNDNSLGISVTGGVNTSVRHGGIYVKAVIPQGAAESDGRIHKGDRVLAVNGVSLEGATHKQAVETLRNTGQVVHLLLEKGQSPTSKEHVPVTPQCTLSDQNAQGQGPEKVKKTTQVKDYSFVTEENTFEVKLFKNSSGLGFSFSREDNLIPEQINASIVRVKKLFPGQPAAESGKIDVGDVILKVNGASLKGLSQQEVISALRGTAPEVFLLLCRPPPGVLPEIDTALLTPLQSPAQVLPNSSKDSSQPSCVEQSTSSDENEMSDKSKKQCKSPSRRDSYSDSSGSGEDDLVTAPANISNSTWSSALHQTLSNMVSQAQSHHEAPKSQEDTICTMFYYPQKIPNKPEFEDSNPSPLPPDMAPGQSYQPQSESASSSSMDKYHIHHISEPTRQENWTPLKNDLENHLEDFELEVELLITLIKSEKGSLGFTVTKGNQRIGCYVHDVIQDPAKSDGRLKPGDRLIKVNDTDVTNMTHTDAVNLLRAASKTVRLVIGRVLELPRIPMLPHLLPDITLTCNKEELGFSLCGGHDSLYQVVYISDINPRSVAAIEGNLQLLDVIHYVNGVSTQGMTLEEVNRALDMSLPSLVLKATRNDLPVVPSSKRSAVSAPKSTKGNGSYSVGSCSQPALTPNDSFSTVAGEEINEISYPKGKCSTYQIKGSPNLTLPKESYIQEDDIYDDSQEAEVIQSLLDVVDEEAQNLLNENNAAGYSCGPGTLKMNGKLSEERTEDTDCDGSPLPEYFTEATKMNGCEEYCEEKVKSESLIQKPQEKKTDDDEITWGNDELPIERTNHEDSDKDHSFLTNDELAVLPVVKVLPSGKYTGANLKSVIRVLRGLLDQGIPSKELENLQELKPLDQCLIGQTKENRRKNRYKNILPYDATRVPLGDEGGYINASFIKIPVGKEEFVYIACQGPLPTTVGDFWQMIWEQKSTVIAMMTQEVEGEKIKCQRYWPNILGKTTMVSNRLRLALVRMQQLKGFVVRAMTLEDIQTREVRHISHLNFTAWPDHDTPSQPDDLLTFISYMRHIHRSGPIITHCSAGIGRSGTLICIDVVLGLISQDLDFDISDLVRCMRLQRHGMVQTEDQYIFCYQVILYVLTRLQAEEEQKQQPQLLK
Summary of the method: as §1

[6] = PDZ KIAA807, PDZ Domain not given

Classification ([1]; PDZ MUPP-1, PDZ Domain 10)	Classification ([3]; PDZ KIAA0807(S), PDZ Domain 1)	Classification ([4]; PDZ Domain 8)	Classification ([1]; PDZ MUPP-1, PDZ Domain 7)	Classification ([1]; PDZ MUPP-1, PDZ Domain 9)	Classification ([1]; PDZ MUPP-1, PDZ Domain 13)	Classification ([5]; PDZ PTPL-1, PDZ Domain 2)	Classification [3, 6]	Classification ([1]; PDZ MUPP-1, PDZ Domain 3)	Classification ([5]; PDZ PTPL-1, PDZ Domain 4)	Classification ([4]; PDZ Domain 3)	Compound	also measured
	5 (A450 nm of 4 more than 2× repeated)		1 (A450 nm 0-1)	1 (A450 nm 0-1)	2 (A450 nm 1-2)	2 (A450 nm 1-2)	5 (A450 nm of 4 more than 2× repeated)				VHDAESSDEDGYDWGPATDL (Biotin-VHDAESSDEDGYDWGPATDL) [zona occludens 3 (ZO-3)]	Classification ([2]; PDZ KIAA1634, PDZ Domain 5): 1 (A450 nm 0-1)
	1 (A450 nm 0-1)		2 (A450 nm 1-2)	3 (A450 nm 2-3)				3 (A450 nm 2-3)	2 (A450 nm 1-2)	1 (A450 nm 0-1)	CC[C@H](C)[C@H](NC(=O)[C@H](Cc1ccc(O)cc1)NC(=O)[C@H](CC(C)C)NC(=O)[C@H](CCC(N)=O)NC(=O)[C@H](Cc1c[nH]cn1)NC(=O)[C@H](CO)NC(=O)[C@H](C)NC(=O)[C@H](CC(C)C)NC(=O)[C@@H](NC(=O)[C@H](CC(=O)O)NC(=O)[C@H](CCSC)NC(=O)[C@H](Cc1ccccc1)NC(=O)[C@@H]1CCCN1C(=O)[C@H](CCCNC(=N)N)NC(=O)[C@@H](NC(=O)[C@H](CC(C)C)NC(=O)[C@H](CC(N)=O)NC(=O)[C@H](CC(=O)O)NC(=O)[C@@H](NC(=O)[C@H](CO)NC(=O)CCCC[C@@H]1SC[C@@H]2NC(=O)N[C@@H]21)[C@@H](C)O)C(C)C)[C@@H](C)O)C(=O)O [presenilin-2] (Biotin-STDNLVRPFMDTLASHQLYI-OH; C-terminus assumed)	
	1 (A450 nm 0-1)					5 (A450 nm of 4 more than 2× repeated)			2 (A450 nm 1-2)		CC(C)C[C@H](NC(=O)[C@H](CC(C)C)NC(=O)[C@@H](NC(=O)[C@H](CC(=O)O)NC(=O)CCCC[C@@H]1SC[C@@H]2NC(=O)N[C@@H]21)[C@@H](C)O)C(=O)N[C@@H](CC(C)C)C(=O)N[C@H](C(=O)N[C@@H](CCC(=O)O)C(=O)N[C@@H](CC(N)=O)C(=O)N[C@@H](CCC(=O)O)C(=O)NCC(=O)N[C@@H](CC(=O)O)C(=O)N[C@@H](CCCCN)C(=O)N[C@H](C(=O)N[C@@H](CCC(=O)O)C(=O)N[C@@H](CCC(=O)O)C(=O)N[C@@H](CCC(N)=O)C(=O)N[C@H](C(=O)N[C@@H](CO)C(=O)N[C@@H](Cc1ccc(O)cc1)C(=O)N[C@H](C(=O)O)C(C)C)C(C)C)[C@@H](C)O)[C@@H](C)O [5H2B_HUMAN] (Biotin-DTLLLTENEGDKTEEQVSYV-OH; C-terminus assumed)	Classification ([2]; PDZ KIAA1634, PDZ Domain 2): 5 (A450 nm of 4 more than 2× repeated); Classification ([3]; PDZ KIAA807): 1 (A450 nm 0-1)
	1 (A450 nm 0-1)				1 (A450 nm 0-1)	2 (A450 nm 1-2)				2 (A450 nm 1-2)	A2AA_HUMAN (modified) (Biotin-HDFRRAFKKILARGDRKRIV; not fully specified)	Classification ([1]; PDZ MUPP-1, PDZ Domain 6): 2 (A450 nm 1-2); Classification ([1]; PDZ MUPP-1, PDZ Domain 8): 1 (A450 nm 0-1); Classification ([4]; PDZ Domain 4): 1 (A450 nm 0-1)
1 (A450 nm 0-1)	5 (A450 nm of 4 more than 2× repeated)	1 (A450 nm 0-1)	3 (A450 nm 2-3)	3 (A450 nm 2-3)			4 (A450 nm 3-4)	3 (A450 nm 2-3)	5 (A450 nm of 4 more than 2× repeated)		CC[C@H](C)[C@H](NC(=O)[C@H](Cc1ccc(O)cc1)NC(=O)[C@@H](NC(=O)[C@@H]1CCCN1C(=O)[C@H](CCC(N)=O)NC(=O)[C@H](CCC(=O)O)NC(=O)[C@H](CCC(N)=O)NC(=O)[C@H](C)NC(=O)[C@@H](NC(=O)[C@H](CC(C)C)NC(=O)[C@H](CC(C)C)NC(=O)[C@H](CCCNC(=N)N)NC(=O)[C@H](Cc1ccc(O)cc1)NC(=O)[C@H](CCSC)NC(=O)[C@H](C)NC(=O)[C@H](C)NC(=O)[C@@H]1CCCN1C(=O)[C@H](CCSC)NC(=O)[C@@H](NC(=O)[C@H](CCCCN)NC(=O)CCCC[C@@H]1SC[C@@H]2NC(=O)N[C@@H]21)[C@@H](C)O)[C@@H](C)O)C(C)C)C(=O)O [MINT-1] (Biotin-KTMPAAMYRLLTAQEQPVYI-OH; C-terminus assumed)	Classification ([1]; PDZ MUPP-1, PDZ Domain 1): 1 (A450 nm 0-1); Classification ([1]; PDZ MUPP-1, PDZ Domain 2): 1 (A450 nm 0-1); Classification ([1]; PDZ MUPP-1, PDZ Domain 5): 2 (A450 nm 1-2); Classification ([1]; PDZ MUPP-1, PDZ Domain 11): 5 (A450 nm of 4 more than 2× repeated)
1 (A450 nm 0-1)	5 (A450 nm of 4 more than 2× repeated)	1 (A450 nm 0-1)			1 (A450 nm 0-1)		5 (A450 nm of 4 more than 2× repeated)				PPATPSPRLALPAHHNATRL (Biotin-PPATPSPRLALPAHHNATRL) [Na+/Pi cotransporter 2]	

Compound	Classification ([1]; PDZ MUPP-1, PDZ Domain 10)	Classification ([3]; PDZ KIAA0807(S), PDZ Domain 1)	Classification ([4]; PDZ Domain 8)	Classification ([1]; PDZ MUPP-1, PDZ Domain 7)	Classification ([1]; PDZ MUPP-1, PDZ Domain 9)	Classification ([1]; PDZ MUPP-1, PDZ Domain 13)	Classification ([5]; PDZ PTPL-1, PDZ Domain 2)	Classification [3, 6]	Classification ([1]; PDZ MUPP-1, PDZ Domain 3)	Classification ([5]; PDZ PTPL-1, PDZ Domain 4)	Classification ([4]; PDZ Domain 3)	also measured
CC[C@H](C)[C@H](NC(=O)[C@H](CC(=O)O)NC(=O)[C@H](CCC(=O)O)NC(=O)[C@H](CCCNC(=N)N)NC(=O)[C@@H](NC(=O)CCCC[C@@H]1SC[C@@H]2NC(=O)N[C@@H]21)[C@@H](C)O)C(=O)N[C@@H](Cc1ccc(O)cc1)C(=O)N[C@H](C(=O)N[C@@H](CC(N)=O)C(=O)N[C@@H](Cc1ccc(O)cc1)C(=O)N1CCC[C@H]1C(=O)N[C@H](C(=O)N[C@@H](Cc1ccccc1)C(=O)N[C@@H](CO)C(=O)N[C@@H](CCCNC(=N)N)C(=O)N[C@@H](CCCNC(=N)N)C(=O)N1CCC[C@H]1C(=O)N[C@@H](CCCCN)C(=O)N[C@H](C(=O)N[C@@H](CCCNC(=N)N)C(=O)N[C@H](C(=O)O)C(C)C)[C@@H](C)O)[C@@H](C)O)C(C)C [DNAM-1] (Biotin-TREDIYVNYPTFSRRPKTRV-OH; C-terminus assumed)	4 (A450 nm 3-4)	3 (A450 nm 2-3)	5 (A450 nm of 4 more than 2× repeated)									Classification ([2]; PDZ KIAA1634, PDZ Domain 1): 5 (A450 nm of 4 more than 2× repeated); Classification ([3]; PDZ KIAA807): 3 (A450 nm 2-3)
CC[C@H](C)[C@H](NC(=O)[C@H](C)NC(=O)[C@H](CC(C)C)NC(=O)[C@H](Cc1c[nH]c2ccccc12)NC(=O)[C@H](Cc1c[nH]cn1)NC(=O)[C@H](CCC(N)=O)NC(=O)[C@H](CC(C)C)NC(=O)[C@H](CCC(N)=O)NC(=O)[C@H](Cc1ccccc1)NC(=O)[C@H](CCC(N)=O)NC(=O)[C@H](CCCNC(=N)N)NC(=O)[C@@H](NC(=O)[C@H](CC(=O)O)NC(=O)[C@H](CCCNC(=N)N)NC(=O)[C@H](CCC(N)=O)NC(=O)[C@H](C)NC(=O)[C@@H](NC(=O)[C@H](CC(C)C)NC(=O)[C@H](Cc1c[nH]cn1)NC(=O)[C@H](Cc1c[nH]cn1)NC(=O)CCCC[C@@H]1SC[C@@H]2NC(=O)N[C@@H]21)C(C)C)[C@@H](C)CC)C(=O)O [noradrenaline transporter] (Biotin-HHLVAQRDIRQFQLQHWLAI-OH; C-terminus assumed)				3 (A450 nm 2-3)	3 (A450 nm 2-3)				4 (A450 nm 3-4)		3 (A450 nm 2-3)	
